Assay results published in patent US20200206198A1, “CFTR CHANNEL ACTIVATOR FOR USE IN THE TREATMENT AND/OR PREVENTION OF GLUTEN SENSITIVITY CONDITIONS” (priority 2017, published 2020).

Tests used:
CFTR = biological target: T1, CFTR (Homo sapiens, UniProt P13569); experiment: CFTR channel function in intestinal epithelial cells (forskolin-induced Isc in Ussing chambers; SPQ iodide efflux); assay type: cell-based; details: VX-770 10 μM, VX-532 20 μM, Genistein 10 μM; Caco-2 or T84 cells
T1 construct: Immunoprecipitations of endogenous proteins were performed on 500 μg of lysates from Caco-2 cells; host or cells: Caco-2, T84
Method: Human colon adenocarcinoma-derived Caco-2 and T84 cells (Barone, M. V. et al. 2014; Luciani, A. et al. 2010) were obtained from the ATCC. Cells were maintained in T25 flask in Modified Eagle Medium (MEM) for Caco-2, or Ham's F12+DMEM (1:1) for T84, supplemented with 10% fetal bovine serum (FBS), 2 mM Glutamine+1% Non Essential Amino Acids (NEAA) and the antibiotics penicillin\streptomycin (100 units/ml) (all reagents from Lonza). Caco-2 cells were grown in Transwells (Corning, 3470 or 3460) under the normal condition. Briefly, 8×10^4 or 5×10^5 cells were seeded in 6.5-mm diameter or 12-mm diameter, respectively, and grown until the RT reached 800 to 1,200 Ω·cm^2. Transwells with a pore size of 0.4 μm were used. Medium in both the apical and baso lateral chambers was changed every other day. Cells were treated with 20 μg/ml of either with the α-gliadin peptide comprising the P31-43 amino acid sequence of α-gliadin LGQQQPFPPQQPY (SEQ ID 1) (below referred to as P31-43), which is known to induce an enterocyte stress response (Meresse, B. et al.2009; Barone, M. V. et al. 2014; Luciani, A. et al. 2010), the T-cell activating α-gliadin peptide comprising the P57-68 amino acid sequence of α-gliadin (QLQPFPQPQLPY SEQ ID 2)) (below referred to as P57-68) (Maiuri, L., et al. 2003; Meresse, B. et al.2009; 30 Barone, M. V. et al. 2014), or the scrambled GAVAAVGVVAGA (SEQ ID 3) control peptide (below referred to as PGAV), or with different modified P31-43, either biotin-tagged or not, for different time points (from 1 h short challenge up to 24 h). Cells were also treated with 50 or 100 5 μg/ml of P57-68 or PGAV peptides for 3 h.
Caco-2 or T84 cells were also treated with: CFTR potentiators VX-770 (Ivacaftor) (10 μM) or VX-532 (20 μM) (Selleck chemicals) or Genistein (10 μM) (Verkman, A. S. et al. 2005; Jih, K. Y. et al. 2013) (Sigma-Aldrich) or in presence or absence of CFTR inhibitor172 (CFTRinh172, 20 μM).
Human colon adenocarcinoma-derived Caco-2 and T84 cells were obtained from the ATCC. Cells were maintained in T25 flask in Modified Eagle Medium (MEM) for Caco-2, or Ham's F12+DMEM (1:1) for T84, supplemented with 10% fetal bovine serum (FBS), 2 mM Glutamine+1% Non Essential Amino Acids (NEAA) and the antibiotics penicillin\streptomycin (100 units/ml) (all reagents from Lonza) (Luciani, A., et al. 2010. Cells were grown in Transwells (Corning, 3470 or 3460) under the normal condition (Luciani, A., et al. 2012). Briefly, 8×10^4 or 5×10^5 cells were seeded in 6.5-mm diameter or 12-mm diameter, respectively, and grown until the RT reached 800 to 1,200 Ω·cm2. Transwells with a pore size of 0.4 μm were used. Medium in both the apical and basolateral chambers was changed every other day. […]

PM-associated CFTR = biological target: T2, PM-associated CFTR (Homo sapiens, UniProt P13569); experiment: CFTR plasma membrane disposal in Caco-2 cells (membrane fractions); assay type: cell-based
T2 construct: Immunoprecipitations of endogenous proteins were performed on 500 μg of lysates from Caco-2 cells; host or cells: Caco-2, T84
Method: (§1) Human colon adenocarcinoma-derived Caco-2 and T84 cells were obtained from the ATCC. Cells were maintained in T25 flask in Modified Eagle Medium (MEM) for Caco-2, or Ham's F12+DMEM (1:1) for T84, supplemented with 10% fetal bovine serum (FBS), 2 mM Glutamine+1% Non Essential Amino Acids (NEAA) and the antibiotics penicillin\streptomycin (100 units/ml) (all reagents from Lonza) (Luciani, A., et al. 2010. Cells were grown in Transwells (Corning, 3470 or 3460) under the normal condition (Luciani, A., et al. 2012). Briefly, 8×10^4 or 5×10^5 cells were seeded in 6.5-mm diameter or 12-mm diameter, respectively, and grown until the RT reached 800 to 1,200 Ω·cm2. Transwells with a pore size of 0.4 μm were used. Medium in both the apical and basolateral chambers was changed every other day. Cells were treated with 20 μg/ml of either α-gliadin peptide P31-43 or […] or scrambled PGAV or modified P31-43 either biotin-tagged or not, for different time point (from 1 h short challenge up to 24 h). Cells were also treated with 50 or 100 μg/ml of P57-68 or PGAV peptides for 3 h. Caco-2 or T84 cells were also treated with: CFTR potentiators VX-770 (10 μM) or VX-532 (20 μM) (Selleck chemicals) or Genistein (10 μM) (Sigma-Aldrich) or in presence or absence of CFTR inhibitor172 (CFTRinh172, 20 μM) or 3-methyl-adenine (3-MA, 20 μM) (Calbiochem), Z-DON (20 nM, Zedira) or BAPTA-AM (10 μM, Calbiochem).
(§2) The whole lysate or membrane fraction proteins of cell lines and mice intestine homogenates were obtained from treated and untreated cells or mice as described. The equal amount of protein were resolved by SDS-PAGE gel and blotted with antibodies against: SQSTM1, (Sigma Aldrich, 108k4767) 1:1000, PPARγ (Santa Cruz Biotechnology, sc7273) 1:500, BECN1 (Abcam, ab58878) 1:1000, CFTR clone M3A7 (Abcam, ab4067) 1:500, phospho-ERK1/2 (php42/44, Cell Signaling Technology, #91101) 1:1000, UVRAG (Santa Cruz Biotechnology sc8215) 1:1000, NHERF-1 (BD, 611161) 1:1000, EZRIN (BD, 610603) 1:1000, hVps34 (SigmaV9764) 1:300, biotin (Abcam, ab1227) 1:2000, PKAr2a (BD, 610625) 1:500, Ubiquitin (Cell Signaling clone P4D1, #3936) 1:1000, CHIP (Calbiochem PC711) 1:500, Caspase-1 p10 (M-20) (Santa Cruz Biotechnology, sc-514) 1:200, NLRP3 (Abcam, ab4207), 1:500, IDO1 (monoclonal; cv152) 1:1000^[80], used as primary antibodies. Normalization was performed by probing the membrane with anti-β-actin (Cell Signaling, #4970) 1:1000, anti-Gapdh (Sigma-Aldrich, G8795) 1:1000 and anti-flottilin (Abcam ab15148) 1:1000 antibodies. Immunoprecipitations of endogenous proteins were performed on 500 μg of lysates from Caco-2 cells. The proteins were incubated for 12-18 h at 4° C. with 10 ug\ml of specific antibody followed by the addition of Protein A/G-agarose beads for 4 h at 4° C. The beads were then washed three times with lysis buffer and Laemmli's sample buffer was added to the samples. The membranes were then blotted with: CFTR clone CF3 (Abcam, ab2784) 1:1000, TG2 (clone CUB7402; NeoMarkers) 1:1000, CHIP (Calbiochem PC711) 1:500, Ubiquitin (Cell Signaling clone P4D1 3936), isopeptide (Abcam 422) 1:1000, PKAR2 (BD 610625) 1:500.
Protein from membrane fractionation were obtained as described. Cells were homogenized with a PotterElvehjem pestle and centrifuged at 2300×g for 15 min at 4° C. […]

Caco-2 cells = experiment: Endosomal trafficking proteins in Caco-2 cells (immunoblot, endosomal fractions); assay type: cell-based, human; details: lost if 3-MA or CFTR inhibitor added
Method: as §1
as §2, with “The beads were then washed three times with lysis buffer and Laemmli's sample buffer was added to the samples. The membranes were then blotted with: CFTR clone CF3 (Abcam, ab2784) 1:1000, TG2 (clone CUB7402; NeoMarkers) 1:1000, CHIP (Calbiochem PC711) 1:500, Ubiquitin (Cell Signaling clone P4D1 3936), isopeptide (Abcam 422) 1:1000, PKAR2 (BD 610625) 1:500.” left out

T2 sequence (P13569 whole entry): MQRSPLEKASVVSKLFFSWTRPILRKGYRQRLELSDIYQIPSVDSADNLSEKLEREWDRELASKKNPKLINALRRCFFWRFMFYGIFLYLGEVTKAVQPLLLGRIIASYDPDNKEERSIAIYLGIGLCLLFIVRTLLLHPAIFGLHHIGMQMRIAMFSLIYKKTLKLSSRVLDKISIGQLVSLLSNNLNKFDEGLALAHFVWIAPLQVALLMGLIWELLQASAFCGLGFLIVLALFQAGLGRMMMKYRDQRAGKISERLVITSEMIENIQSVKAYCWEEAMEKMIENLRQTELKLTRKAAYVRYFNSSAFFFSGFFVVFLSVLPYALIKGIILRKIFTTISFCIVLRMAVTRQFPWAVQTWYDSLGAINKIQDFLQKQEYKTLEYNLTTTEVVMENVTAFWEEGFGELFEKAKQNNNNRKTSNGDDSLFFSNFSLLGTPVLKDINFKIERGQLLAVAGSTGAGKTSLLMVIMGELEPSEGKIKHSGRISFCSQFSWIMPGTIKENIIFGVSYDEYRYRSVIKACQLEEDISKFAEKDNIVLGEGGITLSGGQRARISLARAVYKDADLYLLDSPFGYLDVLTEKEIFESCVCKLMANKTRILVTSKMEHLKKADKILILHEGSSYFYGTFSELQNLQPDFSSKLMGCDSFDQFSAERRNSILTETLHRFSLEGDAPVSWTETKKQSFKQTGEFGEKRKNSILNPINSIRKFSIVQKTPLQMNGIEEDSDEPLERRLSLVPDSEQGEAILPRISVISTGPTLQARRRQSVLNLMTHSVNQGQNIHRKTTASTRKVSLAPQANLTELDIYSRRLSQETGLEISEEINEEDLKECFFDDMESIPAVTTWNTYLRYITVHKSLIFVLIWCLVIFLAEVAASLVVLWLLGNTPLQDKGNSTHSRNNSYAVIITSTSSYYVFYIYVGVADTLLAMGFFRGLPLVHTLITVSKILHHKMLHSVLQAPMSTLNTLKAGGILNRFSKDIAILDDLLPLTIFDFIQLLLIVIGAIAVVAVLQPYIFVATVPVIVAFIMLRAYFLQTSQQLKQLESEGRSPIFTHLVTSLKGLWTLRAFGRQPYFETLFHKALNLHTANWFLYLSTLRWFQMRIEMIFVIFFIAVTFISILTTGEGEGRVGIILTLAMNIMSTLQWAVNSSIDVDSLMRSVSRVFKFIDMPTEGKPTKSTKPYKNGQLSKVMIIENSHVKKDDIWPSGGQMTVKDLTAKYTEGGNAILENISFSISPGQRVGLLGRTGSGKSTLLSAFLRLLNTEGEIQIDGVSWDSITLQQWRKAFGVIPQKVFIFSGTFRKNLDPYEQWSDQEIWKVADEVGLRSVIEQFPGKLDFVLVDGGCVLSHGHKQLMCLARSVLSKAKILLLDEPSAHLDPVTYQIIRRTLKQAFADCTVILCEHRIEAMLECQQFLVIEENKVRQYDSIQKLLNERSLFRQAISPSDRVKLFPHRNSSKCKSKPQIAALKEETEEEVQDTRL
T1 sequence (P13569 whole entry): as above

- effect on P31-43-induced reduction of PM-associated CFTR (PM-associated CFTR): counteracted
Compound: Cc1ccc(O)c(-c2cc(-c3ccccc3)[nH]n2)c1 [VX-532, 4-Methyl-2-(5-phenyl-1Hpyrazol-3-yl)-phenol]
- prevention of P31-43 induced decrease of CFTR function (CFTR): Prevents P31-43 Induced Inhibition of CFTR Function
- effect on P31-43-induced reduction of BECN1, hVps34, UVRAG, Rab5 and Rab7 (Caco-2 cells): counteracted
